Test results reported in patent publication US6849645B2, “Method of increased bioavailability of nutrients and pharmaceutical preparations with tetrahydropiperine and its analogues and derivatives” (priority 2000, dated 2005).

Test system: Earthworms
Assay: Albendazole induced anthelmintic activity on earthworms (paralysis and death)
Type: in vivo, earthworm
Method: An experiment to see how tetrahydropiperine enhances the skin permeability of anthelmintic drugs such as albendazole on intestinal worms was conducted. However, as a preliminary study towards this, tests on earthworms were conducted.
Earthworms were obtained from the Al Ameen College of Pharmacy, Bangalore. Albendazole (Zentel) was obtained from Smith Kline Beecham Pharmaceuticals, Bangalore. The aqueous test solution contained tetrahydropiperine (Tetraperine™, A proprietary product of Sabinsa Corporation, USA) of 0.1% and 0.2% w/v suspended in 0.25% w/v sodium carboxy methyl cellulose.
1. Effect of Albendazole: Earth worms of similar length and weight were divided into three groups of six worms each. […] The time of onset of paralysis was noted and the death of the worms were observed and recorded as above.

[1] = Albendazole 0.2% + THP 0.1% vs Albendazole 0.2%
[2] = Albendazole 0.2% + THP 0.1% w/v
[3] = Albendazole 0.2% + THP 0.2% vs Albendazole 0.2%
[4] = Albendazole 0.2% + THP 0.2% w/v

In the case of `O=C(CCCCc1ccc2c(c1)OCO2)N1CCCCC1` [Tetrahydropiperine, 1-[5-(1,3-Benzodioxol-5 yl)-1-oxo-pentanoyl]-Piperidine], the “% Reduction in time for Death” value [1] is reported as 11.03%, the “% Reduction in time for Paralysis” value [1] is reported as 12.81% and the “Time taken in minutes (Mean ± SEM), Death” value [2] is reported as 98.16 ± 5.19 min. For the same compound, the “Time taken in minutes (Mean ± SEM), Paralysis” value [2] was 86.31 ± 4.3 min, the “% Reduction in time for Death” value [3] was 32.32% and the “% Reduction in time for Paralysis” value [3] was 37.36%. For the same compound, the “Time taken in minutes (Mean ± SEM), Death” value [4] was 74.64 ± 2.98 min, the “Time taken in minutes (Mean ± SEM), Paralysis” value [4] was 62.01 ± 3.33 min and the “change in time taken for paralysis and death” value (Albendazole 0.2% co-administered with tetrahydropiperine 0.2%) was “showed a reduction”. For the same compound, the “% Reduction in time for Death” value (THP 0.1% alone) was “Nil”, the “% Reduction in time for Paralysis” value (THP 0.1% alone) was “Nil” and the “change in time of paralysis and death compared with standard concentration” value (Tetrahydropiperine 0.1% with albendazole 0.2%, unpaired t test) was “no change”.
